What is called Ki is a dissociation constant, usually derived from enzyme kinetics or from competition with a known ligand.

This passage reports Ki results from patent US8053553B2, “Targeting host proteinases as a therapeutic strategy against viral and bacterial pathogens” (Socpra Sciences Sante Et Humaines, priority 2007, dated 2011).

Read-outs that look alike come from different tables or passages of the source. Non-standard residues stand in square brackets, D forms with d. Residues, ends and D or L forms follow the SMILES beside them. Sar = CNCC(=O)O

This experiment has as its target T1, furin (Homo sapiens, UniProt P09958).
T1 construct: made in house; host or cells: Drosophila S2 cells (Invitrogen expression system)
The experiment in a line: biochemical. Conditions: furin, Pyr-RTKR-AMC substrate, read-out: Ki.

Setting [1] is: alanine scanning mutagenesis of the H5 furin cleavage sequence (Table 2).
The mark [2] stands for this setting: optimization of the inhibitory peptides (Table 3).

T1 sequence (P09958 108-794 limits assumed): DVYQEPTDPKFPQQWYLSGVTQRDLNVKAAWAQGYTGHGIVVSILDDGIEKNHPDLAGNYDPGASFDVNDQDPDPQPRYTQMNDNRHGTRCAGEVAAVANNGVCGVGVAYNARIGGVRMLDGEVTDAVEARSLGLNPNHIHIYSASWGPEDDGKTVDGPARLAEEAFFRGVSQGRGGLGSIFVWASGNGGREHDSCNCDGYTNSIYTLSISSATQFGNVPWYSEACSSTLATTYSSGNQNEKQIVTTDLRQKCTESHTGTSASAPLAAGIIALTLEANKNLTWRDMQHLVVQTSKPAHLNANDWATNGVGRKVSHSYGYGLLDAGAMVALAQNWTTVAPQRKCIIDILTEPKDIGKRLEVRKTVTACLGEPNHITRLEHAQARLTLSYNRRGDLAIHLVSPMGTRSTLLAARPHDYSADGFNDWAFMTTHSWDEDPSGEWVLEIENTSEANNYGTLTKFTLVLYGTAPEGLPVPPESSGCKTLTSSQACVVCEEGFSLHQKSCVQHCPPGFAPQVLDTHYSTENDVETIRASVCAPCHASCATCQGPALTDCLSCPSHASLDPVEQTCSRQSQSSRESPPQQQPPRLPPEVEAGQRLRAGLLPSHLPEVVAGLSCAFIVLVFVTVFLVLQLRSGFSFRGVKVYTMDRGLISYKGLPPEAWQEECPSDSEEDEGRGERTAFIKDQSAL

As to `C[C@H](NC(=O)[C@H](C)NC(=O)[C@@H](N)[C@@H](C)O)C(=O)N[C@@H](CCC(=O)O)C(=O)N[C@@H](CCCNC(=N)N)C(=O)N[C@@H](CCCNC(=N)N)C(=O)N[C@@H](CCCNC(=N)N)C(=O)N[C@@H](CCCCN)C(=O)N[C@@H](CCCCN)C(=O)N[C@@H](CCCNC(=N)N)C(=O)NCC(N)=O` (H-TAAERRRKKRG-NH2), the Ki under setting [1] is greater than 100 nM. In the case of `CC(C)[C@H](NC(=O)[C@H](CCCNC(=N)N)NC(=O)[C@H](CCCCN)NC(=O)[C@H](CCCCN)NC(=O)[C@H](CCCNC(=N)N)NC(=O)[C@H](CCCNC(=N)N)NC(=O)[C@H](CCCNC(=N)N)NC(=O)[C@H](CCC(=O)O)NC(=O)[C@H](C)NC(=O)[C@H](C)NC(=O)[C@@H](N)[C@@H](C)O)C(N)=O` (H-TAAERRRKKRV-NH2), the Ki under setting [1] was greater than 100 nM.

Take `C[C@H](NC(=O)[C@H](C)NC(=O)[C@@H](N)[C@@H](C)O)C(=O)N[C@@H](CCC(=O)O)C(=O)N[C@@H](CCCNC(=N)N)C(=O)N[C@@H](CCCNC(=N)N)C(=O)N[C@@H](CCCNC(=N)N)C(=O)N[C@@H](CCCCN)C(=O)N[C@@H](CCCCN)C(=O)N[C@@H](CCCNC(=N)N)C(=O)N(C)CC(N)=O` (H-TAAERRRKKR[Sar]-NH2): under setting [1], the Ki was greater than 100 nM. With `C[C@H](NC(=O)[C@@H](N)[C@@H](C)O)C(=O)N[C@@H](CCCNC(=N)N)C(=O)N[C@@H](CCC(=O)O)C(=O)N[C@@H](CCCNC(=N)N)C(=O)N[C@@H](CCCNC(=N)N)C(=O)N[C@@H](CCCNC(=N)N)C(=O)N[C@@H](CCCCN)C(=O)N[C@@H](CCCCN)C(=O)N[C@@H](CCCNC(=N)N)C(N)=O` (H-TARERRRKKR-NH2), the Ki under setting [1] was greater than 100 nM. On the same count and under the same terms, in the case of `C[C@H](NC(=O)[C@@H](N)[C@@H](C)O)C(=O)N[C@@H](CCCNC(=N)N)C(=O)N[C@@H](CCC(=O)O)C(=O)N[C@@H](CCCNC(=N)N)C(=O)N[C@@H](CCCNC(=N)N)C(=O)N[C@@H](CCCNC(=N)N)C(=O)N[C@@H](CCCCN)C(=O)N[C@@H](CCCCN)C(=O)N[C@@H](CCCNC(=N)N)C(=O)N[C@@H](CO)C(N)=O` (H-TARERRRKKRS-NH2) it was greater than 100 nM; in that of `CC(C)[C@H](NC(=O)[C@H](CCCNC(=N)N)NC(=O)[C@H](CCCCN)NC(=O)[C@H](CCCCN)NC(=O)[C@H](CCCNC(=N)N)NC(=O)[C@H](CCCNC(=N)N)NC(=O)[C@H](CCCNC(=N)N)NC(=O)[C@H](CCC(=O)O)NC(=O)[C@H](CCCNC(=N)N)NC(=O)[C@H](C)NC(=O)[C@@H](N)[C@@H](C)O)C(N)=O` (H-TARERRRKKRV-NH2), greater than 100 nM. As to `C[C@H](NC(=O)[C@H](C)NC(=O)[C@@H]1CCCN1C(=O)[C@@H](N)[C@@H](C)O)C(=O)N[C@@H](C)C(=O)N[C@@H](CCCNC(=N)N)C(=O)N[C@@H](CCCNC(=N)N)C(=O)N[C@@H](CCCCN)C(=O)N[C@@H](CCCCN)C(=O)N[C@@H](CCCNC(=N)N)C(N)=O` (H-TPAAARRKKR-NH2), the Ki under setting [1] is greater than 100 nM. For the compound `C[C@H](NC(=O)[C@H](C)NC(=O)[C@@H]1CCCN1C(=O)[C@@H](N)[C@@H](C)O)C(=O)N[C@@H](C)C(=O)N[C@@H](CCCNC(=N)N)C(=O)N[C@@H](CCCNC(=N)N)C(=O)N[C@@H](CCCCN)C(=O)N[C@@H](CCCCN)C(=O)N[C@@H](CCCNC(=N)N)C(=O)NCC(N)=O` (H-TPAAARRKKRG-NH2), the Ki under setting [1] is greater than 100 nM. For `CC(C)[C@H](NC(=O)[C@H](CCCNC(=N)N)NC(=O)[C@H](CCCCN)NC(=O)[C@H](CCCCN)NC(=O)[C@H](CCCNC(=N)N)NC(=O)[C@H](CCCNC(=N)N)NC(=O)[C@H](C)NC(=O)[C@H](C)NC(=O)[C@H](C)NC(=O)[C@@H]1CCCN1C(=O)[C@@H](N)[C@@H](C)O)C(N)=O` (H-TPAAARRKKRV-NH2), under setting [1], the Ki was greater than 100 nM. On to `C[C@H](NC(=O)[C@H](C)NC(=O)[C@@H]1CCCN1C(=O)[C@@H](N)[C@@H](C)O)C(=O)N[C@@H](C)C(=O)N[C@@H](CCCNC(=N)N)C(=O)N[C@@H](CCCNC(=N)N)C(=O)N[C@@H](CCCCN)C(=O)N[C@@H](CCCCN)C(=O)N[C@@H](CCCNC(=N)N)C(=O)N(C)CC(N)=O` (H-TPAAARRKKR[Sar]-NH2), for which the Ki under setting [1] was greater than 100 nM. On to `C[C@H](NC(=O)[C@H](C)NC(=O)[C@@H]1CCCN1C(=O)[C@@H](N)[C@@H](C)O)C(=O)N[C@@H](CCCNC(=N)N)C(=O)N[C@@H](CCCNC(=N)N)C(=O)N[C@@H](CCCNC(=N)N)C(=O)N[C@@H](CCCCN)C(=O)N[C@@H](CCCCN)C(=O)N[C@@H](CCCNC(=N)N)C(N)=O` (H-TPAARRRKKR-NH2), for which, under setting [1], the Ki is greater than 100 nM. Take `C[C@H](NC(=O)[C@H](C)NC(=O)[C@@H]1CCCN1C(=O)[C@@H](N)[C@@H](C)O)C(=O)N[C@@H](CCCNC(=N)N)C(=O)N[C@@H](CCCNC(=N)N)C(=O)N[C@@H](CCCNC(=N)N)C(=O)N[C@@H](CCCCN)C(=O)N[C@@H](CCCCN)C(=O)N[C@@H](CCCNC(=N)N)C(=O)NCC(N)=O` (H-TPAARRRKKRG-NH2): the Ki under setting [1] is greater than 100 nM. On the same count and under the same terms, for `CC(C)[C@H](NC(=O)[C@H](CCCNC(=N)N)NC(=O)[C@H](CCCCN)NC(=O)[C@H](CCCCN)NC(=O)[C@H](CCCNC(=N)N)NC(=O)[C@H](CCCNC(=N)N)NC(=O)[C@H](CCCNC(=N)N)NC(=O)[C@H](C)NC(=O)[C@H](C)NC(=O)[C@@H]1CCCN1C(=O)[C@@H](N)[C@@H](C)O)C(N)=O` (H-TPAARRRKKRV-NH2) the value was greater than 100 nM; for `C[C@H](NC(=O)[C@H](C)NC(=O)[C@@H]1CCCN1C(=O)[C@@H](N)[C@@H](C)O)C(=O)N[C@@H](CCCNC(=N)N)C(=O)N[C@@H](CCCNC(=N)N)C(=O)N[C@@H](CCCNC(=N)N)C(=O)N[C@@H](CCCCN)C(=O)N[C@@H](CCCCN)C(=O)N[C@@H](CCCNC(=N)N)C(=O)N(C)CC(N)=O` (H-TPAARRRKKR[Sar]-NH2), greater than 100 nM; for `C[C@H](NC(=O)[C@@H]1CCCN1C(=O)[C@@H](N)[C@@H](C)O)C(=O)N[C@@H](CCC(=O)O)C(=O)N[C@@H](CCCNC(=N)N)C(=O)N[C@@H](CCCNC(=N)N)C(=O)N[C@@H](CCCNC(=N)N)C(=O)N[C@@H](CCCCN)C(=O)N[C@@H](CCCCN)C(=O)N[C@@H](CCCNC(=N)N)C(N)=O` (H-TPAERRRKKR-NH2), greater than 100 nM. For `CC(C)[C@H](NC(=O)[C@H](CCCNC(=N)N)NC(=O)[C@H](CCCCN)NC(=O)[C@H](CCCCN)NC(=O)[C@H](CCCNC(=N)N)NC(=O)[C@H](CCCNC(=N)N)NC(=O)[C@H](CCCNC(=N)N)NC(=O)[C@H](CCC(=O)O)NC(=O)[C@H](C)NC(=O)[C@@H]1CCCN1C(=O)[C@@H](N)[C@@H](C)O)C(N)=O` (H-TPAERRRKKRV-NH2), the Ki under setting [1] was greater than 100 nM.

For `C[C@H](NC(=O)[C@@H]1CCCN1C(=O)[C@@H](N)[C@@H](C)O)C(=O)N[C@@H](CCC(=O)O)C(=O)N[C@@H](CCCNC(=N)N)C(=O)N[C@@H](CCCNC(=N)N)C(=O)N[C@@H](CCCNC(=N)N)C(=O)N[C@@H](CCCCN)C(=O)N[C@@H](CCCCN)C(=O)N[C@@H](CCCNC(=N)N)C(=O)N(C)CC(N)=O` (H-TPAERRRKKR[Sar]-NH2), the Ki under setting [1] is greater than 100 nM. Take `CSC[C@H](NC(=O)[C@H](CCCNC(=N)N)NC(=O)[C@H](CCCCN)NC(=O)[C@H](CCCCN)NC(=O)[C@H](CCCNC(=N)N)NC(=O)[C@H](CCCNC(=N)N)NC(=O)[C@H](CCCNC(=N)N)NC(=O)[C@H](C)NC(=O)[C@H](CCCNC(=N)N)NC(=O)[C@H](CCC(N)=O)NC(=O)[C@@H]1CCCN1C(=O)[C@@H](N)[C@@H](C)O)C(N)=O` (H-TPQRARRRKKRC(Me)-NH2): the Ki under setting [2] was 93 nM. For the compound `C[C@H](NC(=O)[C@H](CCCNC(=N)N)NC(=O)[C@H](CCC(N)=O)NC(=O)[C@@H]1CCCN1C(=O)[C@@H](N)[C@@H](C)O)C(=O)N[C@@H](CCCNC(=N)N)C(=O)N[C@@H](CCCNC(=N)N)C(=O)N[C@@H](CCCNC(=N)N)C(=O)N[C@@H](CCCCN)C(=O)N[C@@H](CCCCN)C(=O)N[C@@H](CCCNC(=N)N)C(=O)N[C@@H](CS)C(N)=O` (H-TPQRARRRKKRC-NH2), the inhibition constant Ki under setting [2] was greater than 100 nM. Turning to `C[C@H](NC(=O)[C@H](CCCNC(=N)N)NC(=O)[C@H](CCC(N)=O)NC(=O)[C@@H]1CCCN1C(=O)[C@@H](N)[C@@H](C)O)C(=O)N[C@@H](CCCNC(=N)N)C(=O)N[C@@H](CCCNC(=N)N)C(=O)N[C@@H](CCCNC(=N)N)C(=O)N[C@@H](CCCCN)C(=O)N[C@@H](CCCCN)C(=O)N[C@@H](CCCNC(=N)N)C(=O)N[C@@H](CC(=O)O)C(N)=O` (H-TPQRARRRKKRD-NH2), the Ki under setting [2] was determined as 50 nM. On the same count and under the same terms, for `C[C@H](NC(=O)[C@H](CCCNC(=N)N)NC(=O)[C@H](CCC(N)=O)NC(=O)[C@@H]1CCCN1C(=O)[C@@H](N)[C@@H](C)O)C(=O)N[C@@H](CCCNC(=N)N)C(=O)N[C@@H](CCCNC(=N)N)C(=O)N[C@@H](CCCNC(=N)N)C(=O)N[C@@H](CCCCN)C(=O)N[C@@H](CCCCN)C(=O)N[C@@H](CCCNC(=N)N)C(=O)N[C@@H](CCC(=O)O)C(N)=O` (H-TPQRARRRKKRE-NH2) the value was 103 nM. On to `C[C@H](NC(=O)[C@H](CCCNC(=N)N)NC(=O)[C@H](CCC(N)=O)NC(=O)[C@@H]1CCCN1C(=O)[C@@H](N)[C@@H](C)O)C(=O)N[C@@H](CCCNC(=N)N)C(=O)N[C@@H](CCCNC(=N)N)C(=O)N[C@@H](CCCNC(=N)N)C(=O)N[C@@H](CCCCN)C(=O)N[C@@H](CCCCN)C(=O)N[C@@H](CCCNC(=N)N)C(=O)N[C@@H](Cc1ccccc1)C(N)=O` (H-TPQRARRRKKRF-NH2), for which the Ki under setting [2] stood at 44 nM. Turning to `C[C@H](NC(=O)[C@H](CCCNC(=N)N)NC(=O)[C@H](CCC(N)=O)NC(=O)[C@@H]1CCCN1C(=O)[C@@H](N)[C@@H](C)O)C(=O)N[C@@H](CCCNC(=N)N)C(=O)N[C@@H](CCCNC(=N)N)C(=O)N[C@@H](CCCNC(=N)N)C(=O)N[C@@H](CCCCN)C(=O)N[C@@H](CCCCN)C(=O)N[C@@H](CCCNC(=N)N)C(=O)N[C@@H](Cc1c[nH]cn1)C(N)=O` (H-TPQRARRRKKRH-NH2), the Ki under setting [2] was greater than 100 nM. Consider `CC[C@H](C)[C@H](NC(=O)[C@H](CCCNC(=N)N)NC(=O)[C@H](CCCCN)NC(=O)[C@H](CCCCN)NC(=O)[C@H](CCCNC(=N)N)NC(=O)[C@H](CCCNC(=N)N)NC(=O)[C@H](CCCNC(=N)N)NC(=O)[C@H](C)NC(=O)[C@H](CCCNC(=N)N)NC(=O)[C@H](CCC(N)=O)NC(=O)[C@@H]1CCCN1C(=O)[C@@H](N)[C@@H](C)O)C(N)=O` (H-TPQRARRRKKRI-NH2), for which, under setting [2], the Ki was greater than 100 nM.
